The assay addresses T1, adenosine A1 receptor (Homo sapiens, UniProt P30542).
T1 construct: expressed in transfected cells; cells use mitochondrial aequorin
T1 sequence (P30542 1-326): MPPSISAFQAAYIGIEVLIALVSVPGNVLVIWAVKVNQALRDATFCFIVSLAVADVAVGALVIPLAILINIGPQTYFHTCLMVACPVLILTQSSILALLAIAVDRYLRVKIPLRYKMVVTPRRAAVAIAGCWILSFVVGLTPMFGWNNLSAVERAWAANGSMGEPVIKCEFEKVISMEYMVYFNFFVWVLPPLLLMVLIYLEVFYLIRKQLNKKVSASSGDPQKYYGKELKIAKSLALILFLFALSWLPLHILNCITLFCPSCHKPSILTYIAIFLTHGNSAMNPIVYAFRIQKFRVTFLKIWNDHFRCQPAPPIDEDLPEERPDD
The assay can be described thus: Adenosine A1 receptor agonistic activity, aequorin calcium luminescence in A1-overexpressing cell line. The format is cell-based. Conditions: for activation at 10 µM: compound concentration 10 μM; for activation at 10 µM / activation at 50 µM: read-out: agonistic effect on A1 receptor, response relative to adenosine as 100%; for activation at 50 µM: compound concentration 50 μM. The source says:
The intracellular endoplasmic reticulum has the function of storing calcium ions and releasing them when necessary. It is responsible for managing and maintaining the overall physiological activities of the human body, such as contracting muscles and promoting hormone secretion by releasing calcium ions. This mechanism has been applied as a universal and accurate method to study the activity of G protein-coupled receptors (GPCRs), and the method of measuring calcium ions, which are the final measurement target, has been developed into various methods including fluorescent substances. The present inventors tried to use chemical luminescence through aequorin to evaluate the agonistic efficacy of the compounds subject to development. To this end, a cell line overexpressing an adenosine receptor (adenosine receptor subtype 1, A1), which targets calcium ions released from the intracellular endoplasmic reticulum, was used, and the concentration of calcium ions released instantaneously was measured using a cell function screening system based on the luminescence phenomenon through mitochondrial aequorin.
Cells into which an A1 receptor gene was inserted through transformation were washed with 10 ml of PBS after 48 hours of culture, and then the cells were isolated and centrifuged at 1,000×g for 5 minutes. The precipitated cells were treated with a basic buffer solution (Dulbecco's Modified Eagle's Medium (DMEM)/HAM's F12 without phenol red, with L-glutamate, 15 mM hydroxyethyl piperazine ethane sulfonic acid (HEPES), pH 7.0, 0.1% bovine serum albumin (BSA)), coelenterazine h was added to a concentration of 2×10^6 cells/ml, and then light was blocked. The cells were allowed to react with coelenterazine h using a rotator at room temperature. After four hours of reaction, the reaction mixture was diluted 10 times with a basic buffer solution to adjust the concentration to 2×10^5 cells/ml and allowed to stand for 60 minutes under the same conditions as before.
To confirm the agonistic activity of the novel compounds of the present invention, the previously prepared cells were plated in a 96-well black plate (Corning 3915) containing adenosine ([…]-4.57 nM) at 50 µl/well (5,000 cells/well), and then the resulting signal value was measured. To confirm the calcium signal changing activity (agonistic activity) of the compounds subject to development, the prepared cells were plated in a 96-well plate containing 50 μl/well of the compound sample at 50 μl/well and allowed to react for 30 minutes. Thereafter, 50 μl/well of adenosine (3 μM) was injected to confirm the reaction. The light emitted due to cell activity was measured and recorded using a Mithras 960 MultiLabel Reader. The measured value (area under the curve (AUC) integrated signal) was expressed in relative light units (RLU). To ensure the accuracy of the experimental data, the experiment was performed at at least two concentrations ([…] and 50 μM) with three samples of the same compound, and EC50 values calculated when necessary were compared and analyzed with the values obtained through at least three experiments.
As a result, the results shown in Table 1 below and FIG. 5 were obtained. Each value was obtained by assuming the response of […] adenosine as 100% and converting the ratio into percentage. The greater the value, the greater the agonistic effect.

In the case of `CC(Nc1nc(NCc2ccco2)nc2ccccc12)c1ccccc1` (stereo not drawn) [AR-012, N^2-(furan-2-ylmethyl)-N^4-(1-phenylethyl)quinazoline-2,4-diamine], the activation at 10 µM is -0.6% and the activation at 50 µM was 6.4%.
For `CCNc1nc(N2CCCC2)c2cc(OC)c(OC)cc2n1` [AR-020, N-ethyl-6,7-dimethoxy-4-(pyrrolidin-1-yl)quinazolin-2-amine], in that order: 0.3% and -0.7%.
For `CC(Nc1nc(NC2CC2)nc2ccccc12)c1ccccc1` (stereo not drawn) [AR-003, N^2-cyclopropyl-N^4-(1-phenylethyl)quinazoline-2,4-diamine], in that order: -1.1% and 3.9%.
The matching figures for `CN(C)c1nc(NCc2ccco2)nc2ccccc12` [AR-002, N^2-(furan-2-ylmethyl)-N^4,N^4-dimethylquinazoline-2,4-diamine]: -1.5% and 1.3%.
Turning to `CN(C)c1nc(NC2CC2)nc2ccccc12` [AR-009, N^2-cyclopropyl-N^4,N^4-dimethylquinazoline-2,4-diamine], the activation at 10 µM is -1.2% and the activation at 50 µM came out at 14.6%.
The matching figures for `CCNc1nc(N(C)C)c2ccccc2n1` [AR-008, N^2-ethyl-N^4,N^4-dimethylquinazoline-2,4-diamine]: 0.4% and 2.6%.
For `O=C(NCCNc1nc(N2CCCC2)c2ccccc2n1)c1ccc(O)c(O)c1` [AR-024, 3,4-Dihydroxy-N-(2-((4-(pyrrolidin-1-yl)quinazolin-2-yl)amino)ethyl)benzamide], in that order: -0.7% and 0.1%.
For `CC(Nc1nc(NCc2ccc3c(c2)OCO3)nc2ccccc12)c1ccccc1` (stereo not drawn) [AR-013, N^2-(benzo[d][1,3]dioxol-5-ylmethyl)-N^4-(1-phenylethyl)quinazoline-2,4-diamine], in that order: 0.8% and -0.4%.
Regarding `CN(C)c1nc(NCc2ccco2)nc2cc(O)c(O)cc12` [AR-026, 4-(Dimethylamino)-2-((furan-2-ylmethyl)amino)quinazoline-6,7-diol], the activation at 10 µM was -0.6% and the activation at 50 µM amounted to 0%.
The matching figures for `c1coc(CNc2nc(NCc3ccco3)c3ccccc3n2)c1` [AR-005, N^2,N^4-bis(furan-2-ylmethyl)quinazoline-2,4-diamine]: 0.2% and 251%.
For `CCNc1nc(NC(C)c2ccccc2)c2ccccc2n1` (stereo not drawn) [AR-011, N^2-ethyl-N^4-(1-phenylethyl)quinazoline-2,4-diamine], in that order: -0.4% and 42.8%.
Consider `CC(Nc1nc(N2CCCC2)c2ccccc2n1)c1ccccc1` (stereo not drawn) [AR-023, N-(1-phenylethyl)-4-(pyrrolidin-1-yl)quinazolin-2-amine], for which the activation at 10 µM came out at 1.7% and the activation at 50 µM turned out to be 47.8%.
The matching figures for `COc1cc2nc(NCc3ccco3)nc(N(C)C)c2cc1OC` [AR-019, N^2-(furan-2-ylmethyl)-6,7-dimethoxy-N^4,N^4-dimethylquinazoline-2,4-diamine]: -0.3% and 0%.
The matching figures for `CN(C)c1nc(NCc2ccc3c(c2)OCO3)nc2ccccc12` [AR-010, N^2-(benzo[d][1,3]dioxol-5-ylmethyl)-N^4,N^4-dimethylquinazoline-2,4-diamine]: 2.1% and 240%.
The matching figures for `CCNc1nc(N2CCCC2)c2cc(O)c(O)cc2n1` [AR-027, 2-(Ethylamino)-4-(pyrrolidin-1-yl)quinazoline-6,7-diol]: 0.2% and 1.1%.
For the compound `c1ccc2c(N3CCCC3)nc(N3CCCC3)nc2c1` [AR-021, 2,4-di(pyrrolidin-1-yl)quinazoline], the activation at 10 µM was found to be 1.8% and the activation at 50 µM is 0.1%.
Regarding `COc1cc2nc(NC3CC3)nc(N3CCCC3)c2cc1OC` [AR-017, N-cyclopropyl-6,7-dimethoxy-4-(pyrrolidin-1-yl)quinazolin-2-amine], the activation at 10 µM is 0.6% and the activation at 50 µM was determined as 0.9%.
One may read the EC50 as the concentration needed to bring the measured effect to its halfway point. On to `c1coc(CNc2nc(NC3CC3)nc3ccccc23)c1` [AR-006, N^2-cyclopropyl-N^4-(furan-2-ylmethyl)quinazoline-2,4-diamine], for which the activation at 10 µM was determined as 170% and the activation at 50 µM is 289%. For the same compound, the EC50 (dose-response, FIG. 5) came to 6.95 µM.
Regarding `Oc1cc2nc(NC3CC3)nc(N3CCCC3)c2cc1O` [AR-025, 2-(Cyclopropylamino)-4-(pyrrolidin-1-yl)quinazoline-6,7-diol], the activation at 10 µM is -1.6% and the activation at 50 µM stood at 0.4%.
The matching figures for `CN(C)c1nc(N2CCCC2)c2ccccc2n1` [AR-022, N,N-dimethyl-4-(pyrrolidin-1-yl)quinazolin-2-amine]: -0.5% and 0%.
The matching figures for `c1coc(CNc2nc(N3CCCC3)c3ccccc3n2)c1` [AR-015, N-(furan-2-ylmethyl)-4-(pyrrolidin-1-yl)quinazolin-2-amine]: 28.6% and 219%.
The matching figures for `CCNc1nc(NCc2ccco2)c2cc(O)c(O)cc2n1` [AR-028, 2-(Ethylamino)-4-((furan-2-ylmethyl)amino)quinazoline-6,7-diol]: -0.3% and -1.1%.
For the compound `CCNc1nc(NCc2ccco2)c2ccccc2n1` [AR-001, N^2-ethyl-N^4-(furan-2-ylmethyl)quinazoline-2,4-diamine], the activation at 10 µM is 23.7% and the activation at 50 µM was 246%.
Turning to `c1ccc2c(N3CCCC3)nc(NCc3ccc4c(c3)OCO4)nc2c1` [AR-004, N-(benzo[d][1,3]dioxol-5-ylmethyl)-4-(pyrrolidin-1-yl)quinazolin-2-amine], the activation at 10 µM was -0.7% and the activation at 50 µM is -0.8%.
For `c1coc(CNc2nc(NCc3ccc4c(c3)OCO4)nc3ccccc23)c1` [AR-007, N^2-(benzo[d][1,3]dioxol-5-ylmethyl)-N^4-(furan-2-ylmethyl)quinazoline-2,4-diamine], in that order: -1.1% and 12%.
For `CCNc1nc(NCc2ccco2)c2cc(OC)c(OC)cc2n1` [AR-018, N^2-ethyl-N^4-(furan-2-ylmethyl)-6,7-dimethoxyquinazoline-2,4-diamine], in that order: 1% and 0%.
The matching figures for `c1ccc2c(N3CCCC3)nc(NC3CC3)nc2c1` [AR-016, N-cyclopropyl-4-(pyrrolidin-1-yl)quinazolin-2-amine]: 3.7% and 101%.
Take `CCNc1nc(N2CCCC2)c2ccccc2n1` [AR-014, N-ethyl-4-(pyrrolidin-1-yl)quinazolin-2-amine]: the activation at 10 µM is -0.9% and the activation at 50 µM amounted to 25.1%.

(Values after patent publication US20250051290A1, “NOVEL COMPOUND FOR IMPROVING SLEEP OR USE THEREOF” (Ajou University Industry-Academic Cooperation Foundation, priority 2021, published 2025).)
